This passage reports IC50, EC50 and CC50 results from ChEMBL document CHEMBL1201862, “PubChem BioAssay data set” (2004).

One may read the IC50 as the point on the concentration scale where inhibition reaches its midpoint.

The target in assay [1] is Eukaryotic translation initiation factor 4H (Homo sapiens, UniProt Q15056). The assay is described as follows: human eIF4H binding inhibitors, primary screen, translation initiation inhibitor project, biochemical, uHTS, fluorescence polarization (AID 2012).
Assay [2] addresses Polyadenylate-binding protein 1 (Homo sapiens, UniProt P11940). The assay is described as follows: PABP poly(A) RNA binding inhibitors, primary screen, biochemical, fluorescence polarization, uHTS (AID 2014).
Assay [3] concerns the target T1, DNA dC->dU-editing enzyme APOBEC-3A (Homo sapiens, UniProt P31941). The experiment in a line: Dose Response confirmation of small molecule APOBEC3A DNA Deaminase Inhibitors via a fluorescence-based single-stranded DNA deaminase assay. [Related pubchem assays (depositor defined):AID493011, AID493024]. In kind it is functional.
For assay [4], the target named is T2, DNA dC->dU-editing enzyme APOBEC-3G (Homo sapiens, UniProt Q9HC16). The assay is classed as functional.
Another assay addresses T3, Hexokinase HKDC1 (Homo sapiens, UniProt Q2TB90).
T3 sequence (Q2TB90 whole entry): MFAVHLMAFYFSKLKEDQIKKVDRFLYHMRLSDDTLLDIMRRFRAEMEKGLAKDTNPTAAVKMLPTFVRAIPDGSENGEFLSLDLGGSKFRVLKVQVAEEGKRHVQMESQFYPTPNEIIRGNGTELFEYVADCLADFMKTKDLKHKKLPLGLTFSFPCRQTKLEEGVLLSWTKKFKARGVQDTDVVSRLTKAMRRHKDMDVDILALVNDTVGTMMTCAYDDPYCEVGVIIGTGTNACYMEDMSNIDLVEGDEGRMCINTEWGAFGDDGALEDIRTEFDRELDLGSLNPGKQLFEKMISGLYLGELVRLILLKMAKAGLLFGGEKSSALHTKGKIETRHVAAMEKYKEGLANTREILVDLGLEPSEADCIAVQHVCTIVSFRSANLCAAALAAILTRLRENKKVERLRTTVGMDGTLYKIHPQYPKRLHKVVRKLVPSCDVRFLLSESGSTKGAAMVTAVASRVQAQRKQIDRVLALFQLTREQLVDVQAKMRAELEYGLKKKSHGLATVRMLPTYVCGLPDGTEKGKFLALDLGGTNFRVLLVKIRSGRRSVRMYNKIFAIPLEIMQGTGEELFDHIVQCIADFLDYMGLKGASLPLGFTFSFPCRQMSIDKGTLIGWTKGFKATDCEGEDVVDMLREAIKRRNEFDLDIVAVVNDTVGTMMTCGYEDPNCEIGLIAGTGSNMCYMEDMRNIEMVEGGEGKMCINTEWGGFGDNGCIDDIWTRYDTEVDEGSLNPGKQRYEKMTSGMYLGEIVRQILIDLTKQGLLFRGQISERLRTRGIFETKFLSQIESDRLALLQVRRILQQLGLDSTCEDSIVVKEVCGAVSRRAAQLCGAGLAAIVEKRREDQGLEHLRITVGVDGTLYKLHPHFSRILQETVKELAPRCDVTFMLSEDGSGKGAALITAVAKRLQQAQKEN
The experiment in a line: HKDC1 hexokinase inhibitors, dose response, biochemical, W721R variant (AID 504729). The assay is classed as functional.

Another assay deals with T4, Hexokinase-1 (Homo sapiens, UniProt P19367).
T4 sequence (P19367 whole entry): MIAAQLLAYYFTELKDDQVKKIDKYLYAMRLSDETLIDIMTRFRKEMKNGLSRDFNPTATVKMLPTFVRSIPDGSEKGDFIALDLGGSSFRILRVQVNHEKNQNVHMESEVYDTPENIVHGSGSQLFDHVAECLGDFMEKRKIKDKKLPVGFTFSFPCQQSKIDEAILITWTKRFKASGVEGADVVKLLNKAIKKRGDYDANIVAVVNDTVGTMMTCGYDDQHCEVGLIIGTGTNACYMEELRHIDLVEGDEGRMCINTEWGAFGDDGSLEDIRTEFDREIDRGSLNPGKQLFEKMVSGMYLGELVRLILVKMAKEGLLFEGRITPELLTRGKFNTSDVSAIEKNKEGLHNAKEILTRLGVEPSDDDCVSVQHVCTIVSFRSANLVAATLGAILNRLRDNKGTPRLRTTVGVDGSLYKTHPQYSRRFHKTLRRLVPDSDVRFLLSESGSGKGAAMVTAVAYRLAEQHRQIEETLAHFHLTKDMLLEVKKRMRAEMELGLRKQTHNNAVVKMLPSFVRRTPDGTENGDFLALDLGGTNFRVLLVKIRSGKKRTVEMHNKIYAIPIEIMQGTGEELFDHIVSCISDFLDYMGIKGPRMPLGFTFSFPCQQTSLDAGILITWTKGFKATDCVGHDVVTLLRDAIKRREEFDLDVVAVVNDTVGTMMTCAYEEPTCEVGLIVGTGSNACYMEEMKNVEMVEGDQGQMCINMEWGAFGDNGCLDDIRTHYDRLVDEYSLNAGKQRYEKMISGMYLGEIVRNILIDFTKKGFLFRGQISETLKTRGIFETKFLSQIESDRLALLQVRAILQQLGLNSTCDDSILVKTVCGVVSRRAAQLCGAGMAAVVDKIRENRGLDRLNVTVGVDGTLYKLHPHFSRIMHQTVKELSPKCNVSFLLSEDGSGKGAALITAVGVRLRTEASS
The experiment in a line: hexokinase 1 activators, dose response, selectivity assay for HKDC1 activator project, biochemical (AID 504762). In kind it is functional.

A short description of assay [5]: cells. In kind it is functional, cell-based.
The nature of assay [6]: microbe, parasite or virus in culture. The assay is classed as functional. The following applies: Mycobacterium tuberculosis.
Assay [7] can be described thus: cells. In kind it is functional, cell-based. The source holds these as a separate data set.
The nature of assay [8]: THP-1 cell cytotoxicity, dose response, cytotoxicity control for non-replicating M. tuberculosis project (AID 489025). In kind it is functional.
Assay [9] is described as follows: HepG2 cell cytotoxicity, dose response, cytotoxicity control for non-replicating M. tuberculosis project (AID 489018). The assay is classed as functional. The following applies: Mycobacterium tuberculosis.
Assay [10] is described as follows: Vero E6 cell cytotoxicity, dose response, cytotoxicity control for non-replicating M. tuberculosis project, secondary assay (AID 492998). The following applies: Vero C1008. In kind it is functional, VeroE6.
For another assay, the target named is Nonstructural protein 1 (Influenza A virus, UniProt Q194T2). The assay is classed as functional, Influenza A virus (A/California/07/2009(H1N1)).
Assay [11] can be described thus: cells. The assay is classed as functional.
For assay [12], the target named is T5, Voltage-gated N-type calcium channel alpha-1B subunit/Amyloid beta A4 precursor protein-binding family A member 1 (Homo sapiens, UniProt Q00975+Q02410). The assay is classed as protein assay.
The target in the next assay is Large T antigen (Simian virus 40, UniProt P03070). The assay is classed as functional, Betapolyomavirus macacae.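 Further: Confirmatory-stage PubChem screen for compounds that inhibit SV40 T antigen.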
The target of assay [13] is T5, Voltage-gated N-type calcium channel alpha-1B subunit/Amyloid beta A4 precursor protein-binding family A member 1. The assay is classed as protein assay. The source holds these as a separate data set.
For assay [14], the target named is T1, DNA dC->dU-editing enzyme APOBEC-3A. The assay is described as follows: APOBEC3A DNA deaminase inhibitors, dose response, biochemical (AID 504722). In kind it is functional.
For assay [15], the target named is Eukaryotic translation initiation factor 4E (Mus musculus, UniProt P63073). The assay is described as follows: eIF4E–eIF4G protein interaction inhibitors, dose response, biochemical, TR-FRET (AID 855).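 Further: potency for disrupting eIF4E binding to eIF4GI seen as loss of FRET.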 The assay is classed as functional. In general terms: TR-FRET usually uses a lanthanide donor and a delayed reading to cut background.
For assay [16], the target named is T6, Runt-related transcription factor 1/Core-binding factor subunit beta (Homo sapiens, UniProt Q01196+Q13951). The experiment in a line: inhibitors of RUNX1 Runt–CBFb-SMMHC binding, primary screen, biochemical, FRET, Cerulean-Runt, Venus-CBFb-SMMHC, uHTS (AID 1434).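 Further: partner is the CBFb-SMMHC leukemia fusion protein rather than wild-type CBFb.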 In kind it is protein assay.
For assay [17], the target named is T6, Runt-related transcription factor 1/Core-binding factor subunit beta. The assay is described as follows: inhibitors of RUNX1 Runt–CBFb-SMMHC binding, biochemical, TR-FRET (AID 1438). The assay is classed as protein assay.
The target in a further assay is Estrogen receptor beta (Homo sapiens, UniProt Q92731).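 Further: recombinant ER-beta bound to coactivator SRC1 peptide in presence of estradiol agonist; inhibitors block coactivator peptide binding and lower the FRET signal.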
Assay [18] deals with T7, Corticotropin-releasing factor receptor 2/Corticotropin-releasing factor-binding protein (Homo sapiens, UniProt P24387+Q13324).
T7 sequence (Q13324 whole entry): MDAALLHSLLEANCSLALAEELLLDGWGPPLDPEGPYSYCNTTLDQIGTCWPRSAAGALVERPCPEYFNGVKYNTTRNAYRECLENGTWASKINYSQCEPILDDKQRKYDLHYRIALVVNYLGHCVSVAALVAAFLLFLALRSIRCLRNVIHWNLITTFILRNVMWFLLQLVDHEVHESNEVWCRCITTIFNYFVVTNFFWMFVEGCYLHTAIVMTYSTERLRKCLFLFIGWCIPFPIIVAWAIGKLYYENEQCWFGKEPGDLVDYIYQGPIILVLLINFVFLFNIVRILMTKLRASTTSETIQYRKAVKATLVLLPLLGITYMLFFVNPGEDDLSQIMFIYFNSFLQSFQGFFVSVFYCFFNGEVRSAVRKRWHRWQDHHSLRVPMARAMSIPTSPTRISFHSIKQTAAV
T7 sequence (P24387 whole entry): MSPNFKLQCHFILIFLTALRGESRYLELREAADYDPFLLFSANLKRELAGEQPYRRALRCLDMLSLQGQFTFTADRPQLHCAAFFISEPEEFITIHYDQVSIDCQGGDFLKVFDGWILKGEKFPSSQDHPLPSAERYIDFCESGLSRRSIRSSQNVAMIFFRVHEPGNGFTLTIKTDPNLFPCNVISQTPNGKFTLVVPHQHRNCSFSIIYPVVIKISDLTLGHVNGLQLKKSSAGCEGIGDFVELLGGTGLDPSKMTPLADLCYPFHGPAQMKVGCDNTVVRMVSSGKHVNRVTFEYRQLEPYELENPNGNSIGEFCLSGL
The experiment in a line: activators of CRF receptor 2 with binding protein – uHTS hits, confirmation (AID 602473). In kind it is functional. The following applies: read-out: EC50_Mean.

Assay [19] deals with T2, DNA dC->dU-editing enzyme APOBEC-3G. The assay is described as follows: Dose Response confirmation of small molecule APOBEC3G DNA Deaminase Inhibitors via a fluorescence-based single-stranded DNA deaminase assay. [Related pubchem assays (depositor defined):AID493012, AID493028]. In kind it is functional.
In a further assay the target is Bcl-2-related protein A1 (Mus musculus, UniProt Q07440). In kind it is functional.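 Further: confirmatory dose–response counterscreen on Bfl-1, used to check hits from a UBC13 polyubiquitin inhibitor campaign.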
For assay [20], the target named is T8, Ubiquitin-conjugating enzyme E2 N (Homo sapiens, UniProt P61088).
T8 sequence (P61088 whole entry): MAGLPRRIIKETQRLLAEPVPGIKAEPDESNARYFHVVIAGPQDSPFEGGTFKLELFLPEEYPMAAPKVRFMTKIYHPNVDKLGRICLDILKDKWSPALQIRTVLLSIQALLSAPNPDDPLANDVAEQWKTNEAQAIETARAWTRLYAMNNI
In kind it is functional.

In assay [21] the target is T8, Ubiquitin-conjugating enzyme E2 N. In kind it is functional. The source holds these as a separate data set.

Active and inactive are the calls of the source.

T2 sequence (Q9HC16 whole entry): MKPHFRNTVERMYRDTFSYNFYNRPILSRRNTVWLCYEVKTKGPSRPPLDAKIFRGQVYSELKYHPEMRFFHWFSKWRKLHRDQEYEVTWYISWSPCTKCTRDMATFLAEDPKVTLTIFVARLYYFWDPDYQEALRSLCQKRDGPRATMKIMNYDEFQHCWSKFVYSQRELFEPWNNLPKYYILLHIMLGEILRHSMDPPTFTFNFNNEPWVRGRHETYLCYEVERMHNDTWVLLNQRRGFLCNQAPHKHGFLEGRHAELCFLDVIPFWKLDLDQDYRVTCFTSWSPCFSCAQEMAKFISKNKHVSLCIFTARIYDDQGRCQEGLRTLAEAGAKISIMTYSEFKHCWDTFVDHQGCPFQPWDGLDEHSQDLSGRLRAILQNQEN
T1 sequence (P31941 whole entry): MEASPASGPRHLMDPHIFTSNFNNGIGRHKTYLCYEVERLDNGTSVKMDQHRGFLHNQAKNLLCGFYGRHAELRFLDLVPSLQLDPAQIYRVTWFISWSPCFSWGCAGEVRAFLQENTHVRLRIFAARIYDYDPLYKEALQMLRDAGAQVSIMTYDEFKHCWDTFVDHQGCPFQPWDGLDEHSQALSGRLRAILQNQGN
T6 sequence (Q01196 whole entry, the tested form may be a part): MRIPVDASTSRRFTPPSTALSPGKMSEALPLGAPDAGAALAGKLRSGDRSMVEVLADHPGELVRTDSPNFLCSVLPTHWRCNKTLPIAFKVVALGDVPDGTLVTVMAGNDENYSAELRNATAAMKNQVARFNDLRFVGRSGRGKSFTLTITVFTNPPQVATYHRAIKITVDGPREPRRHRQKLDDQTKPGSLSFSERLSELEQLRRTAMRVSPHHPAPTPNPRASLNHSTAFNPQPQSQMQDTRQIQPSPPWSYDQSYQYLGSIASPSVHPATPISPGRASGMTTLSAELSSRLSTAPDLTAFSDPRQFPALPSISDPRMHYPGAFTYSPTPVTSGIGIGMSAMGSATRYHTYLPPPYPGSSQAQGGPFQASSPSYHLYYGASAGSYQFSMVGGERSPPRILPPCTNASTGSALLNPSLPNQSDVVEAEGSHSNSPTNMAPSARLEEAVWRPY
T6 sequence (Q13951 whole entry, the tested form may be a part): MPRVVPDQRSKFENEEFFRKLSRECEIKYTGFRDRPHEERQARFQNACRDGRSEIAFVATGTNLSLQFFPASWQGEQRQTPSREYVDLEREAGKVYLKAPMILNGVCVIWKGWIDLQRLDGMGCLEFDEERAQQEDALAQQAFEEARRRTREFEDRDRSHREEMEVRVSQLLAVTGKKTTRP
T5 sequence (Q00975 whole entry): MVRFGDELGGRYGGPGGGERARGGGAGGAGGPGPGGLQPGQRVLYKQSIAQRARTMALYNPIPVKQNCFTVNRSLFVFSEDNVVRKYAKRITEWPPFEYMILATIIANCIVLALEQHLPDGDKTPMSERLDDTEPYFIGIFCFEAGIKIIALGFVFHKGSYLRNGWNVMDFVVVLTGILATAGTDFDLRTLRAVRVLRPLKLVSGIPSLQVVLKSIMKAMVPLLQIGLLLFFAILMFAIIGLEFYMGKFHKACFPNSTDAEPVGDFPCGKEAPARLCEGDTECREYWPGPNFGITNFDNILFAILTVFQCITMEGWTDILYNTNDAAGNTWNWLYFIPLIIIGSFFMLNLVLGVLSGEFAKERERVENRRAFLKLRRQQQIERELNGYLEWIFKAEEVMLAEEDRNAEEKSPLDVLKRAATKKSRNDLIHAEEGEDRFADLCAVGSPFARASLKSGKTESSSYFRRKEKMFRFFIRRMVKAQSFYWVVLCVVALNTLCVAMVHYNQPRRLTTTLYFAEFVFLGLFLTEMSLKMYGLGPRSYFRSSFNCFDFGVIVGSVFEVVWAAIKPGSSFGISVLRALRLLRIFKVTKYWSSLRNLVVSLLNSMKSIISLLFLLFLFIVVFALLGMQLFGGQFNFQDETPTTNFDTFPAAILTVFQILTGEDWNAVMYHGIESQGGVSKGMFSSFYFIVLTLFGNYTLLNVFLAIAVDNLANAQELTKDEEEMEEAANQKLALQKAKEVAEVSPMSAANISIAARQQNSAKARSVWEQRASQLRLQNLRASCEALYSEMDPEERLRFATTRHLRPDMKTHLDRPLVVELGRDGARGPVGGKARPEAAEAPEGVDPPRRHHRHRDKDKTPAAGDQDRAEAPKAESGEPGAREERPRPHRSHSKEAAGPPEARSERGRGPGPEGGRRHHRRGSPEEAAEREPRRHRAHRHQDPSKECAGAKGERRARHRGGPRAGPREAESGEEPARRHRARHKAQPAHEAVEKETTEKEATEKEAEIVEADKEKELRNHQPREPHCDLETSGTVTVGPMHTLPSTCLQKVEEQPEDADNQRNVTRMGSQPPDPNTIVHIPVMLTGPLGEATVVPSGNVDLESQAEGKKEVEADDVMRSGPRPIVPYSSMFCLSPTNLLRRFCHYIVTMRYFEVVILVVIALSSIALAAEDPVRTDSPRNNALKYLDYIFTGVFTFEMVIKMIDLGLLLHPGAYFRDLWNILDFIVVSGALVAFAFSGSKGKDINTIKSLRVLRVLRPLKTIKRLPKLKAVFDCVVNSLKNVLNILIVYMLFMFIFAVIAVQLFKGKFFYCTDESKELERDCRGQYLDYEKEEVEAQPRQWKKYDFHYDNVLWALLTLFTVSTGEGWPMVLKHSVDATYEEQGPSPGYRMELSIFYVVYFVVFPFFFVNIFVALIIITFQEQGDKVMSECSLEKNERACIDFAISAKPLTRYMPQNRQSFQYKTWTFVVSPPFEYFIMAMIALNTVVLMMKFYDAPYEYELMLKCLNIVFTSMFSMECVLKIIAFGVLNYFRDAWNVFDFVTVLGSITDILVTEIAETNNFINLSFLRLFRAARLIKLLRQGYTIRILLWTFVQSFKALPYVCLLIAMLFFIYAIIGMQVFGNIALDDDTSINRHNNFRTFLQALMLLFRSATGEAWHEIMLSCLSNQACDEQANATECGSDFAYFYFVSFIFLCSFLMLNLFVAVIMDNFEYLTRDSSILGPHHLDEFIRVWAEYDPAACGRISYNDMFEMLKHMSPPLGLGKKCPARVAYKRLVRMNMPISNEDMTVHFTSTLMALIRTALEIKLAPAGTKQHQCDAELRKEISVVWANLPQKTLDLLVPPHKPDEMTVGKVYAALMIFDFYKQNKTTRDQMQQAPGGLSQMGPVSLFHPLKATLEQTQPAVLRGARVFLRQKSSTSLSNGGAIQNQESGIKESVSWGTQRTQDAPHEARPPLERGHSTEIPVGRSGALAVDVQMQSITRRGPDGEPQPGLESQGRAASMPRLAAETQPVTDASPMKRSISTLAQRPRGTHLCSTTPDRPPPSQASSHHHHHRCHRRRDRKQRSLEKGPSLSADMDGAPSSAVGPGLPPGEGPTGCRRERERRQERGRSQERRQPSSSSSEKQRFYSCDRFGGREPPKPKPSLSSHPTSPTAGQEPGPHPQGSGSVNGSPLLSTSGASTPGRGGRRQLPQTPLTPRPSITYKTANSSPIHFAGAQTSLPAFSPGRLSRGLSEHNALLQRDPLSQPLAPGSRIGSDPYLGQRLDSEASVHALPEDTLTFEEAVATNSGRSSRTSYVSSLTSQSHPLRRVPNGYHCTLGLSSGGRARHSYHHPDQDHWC
T5 sequence (Q02410 whole entry): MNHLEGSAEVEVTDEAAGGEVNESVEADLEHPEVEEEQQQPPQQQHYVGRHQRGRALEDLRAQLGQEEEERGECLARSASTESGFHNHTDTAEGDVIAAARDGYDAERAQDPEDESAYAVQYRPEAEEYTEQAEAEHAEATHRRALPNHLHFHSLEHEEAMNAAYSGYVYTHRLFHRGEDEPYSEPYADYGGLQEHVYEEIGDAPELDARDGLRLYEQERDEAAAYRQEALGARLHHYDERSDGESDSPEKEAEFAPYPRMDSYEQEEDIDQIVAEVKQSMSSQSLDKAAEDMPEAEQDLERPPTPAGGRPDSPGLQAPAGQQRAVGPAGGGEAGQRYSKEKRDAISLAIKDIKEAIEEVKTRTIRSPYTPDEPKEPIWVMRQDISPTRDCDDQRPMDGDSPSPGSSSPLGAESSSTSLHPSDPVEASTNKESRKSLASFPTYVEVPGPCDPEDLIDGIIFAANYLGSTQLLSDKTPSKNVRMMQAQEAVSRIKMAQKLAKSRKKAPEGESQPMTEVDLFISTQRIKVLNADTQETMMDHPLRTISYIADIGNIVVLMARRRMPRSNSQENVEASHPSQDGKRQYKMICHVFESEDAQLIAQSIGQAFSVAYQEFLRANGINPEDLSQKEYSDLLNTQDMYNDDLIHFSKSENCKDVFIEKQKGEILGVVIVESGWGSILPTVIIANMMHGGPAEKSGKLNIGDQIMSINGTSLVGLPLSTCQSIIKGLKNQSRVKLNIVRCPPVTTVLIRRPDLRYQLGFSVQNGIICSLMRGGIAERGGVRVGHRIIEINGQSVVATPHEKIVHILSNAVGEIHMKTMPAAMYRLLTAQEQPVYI
Chain of Polyadenylate-binding protein 1 (P11940 whole entry): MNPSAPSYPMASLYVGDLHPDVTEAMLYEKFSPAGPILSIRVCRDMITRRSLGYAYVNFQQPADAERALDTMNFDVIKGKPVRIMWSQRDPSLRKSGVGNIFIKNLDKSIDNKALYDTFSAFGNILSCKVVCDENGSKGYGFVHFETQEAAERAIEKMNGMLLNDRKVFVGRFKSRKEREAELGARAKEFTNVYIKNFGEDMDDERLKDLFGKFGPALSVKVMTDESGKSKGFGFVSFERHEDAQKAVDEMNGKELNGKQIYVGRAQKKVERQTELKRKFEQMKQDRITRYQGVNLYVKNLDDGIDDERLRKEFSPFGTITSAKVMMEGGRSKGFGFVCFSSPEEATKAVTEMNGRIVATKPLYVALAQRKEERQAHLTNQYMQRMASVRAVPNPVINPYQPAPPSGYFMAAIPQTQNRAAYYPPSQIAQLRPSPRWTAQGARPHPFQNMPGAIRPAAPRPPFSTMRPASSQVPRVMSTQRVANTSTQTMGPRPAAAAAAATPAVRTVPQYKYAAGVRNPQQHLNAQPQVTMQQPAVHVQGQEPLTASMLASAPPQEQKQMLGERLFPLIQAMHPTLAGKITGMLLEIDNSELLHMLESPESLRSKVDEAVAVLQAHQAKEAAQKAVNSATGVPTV

`COC(=O)C1=C(C)N(Cc2ccccc2)C(NCCCCO)=N[C@H]1CCc1ccccc1`: the IC50 in assay [1] is > 100 µM (inactive); in assay [2], 18.9 µM (active); in assay [3], 3.51 µM (active); in assay [4] it was 5.42 µM (active).
In the case of `O=C(c1ccccc1)c1nnc(-c2ccccc2)cc1O`, the IC50 at Hexokinase HKDC1 was > 80 µM (inactive). Also, the EC50 on Hexokinase-1 was > 80 µM (inactive).
In the case of `CNc1nc(-c2ccccn2)nnc1-c1ccccc1`, the EC50 in the assay “cells [5]” is 12.8 µM (active); in “cells [7]”, > 350 µM (not active). For the same compound, the CC50 in assay [6] was 13.3 µM (active); in assay [8] it was 19.1 µM (active); in assay [9] it was > 20 µM (active); in assay [10], 19.9 µM (active). Further, the concentration for half-maximal inhibition (IC50) was 1.66 µM (active) on Nonstructural protein 1 and 11.1 µM (active) in the assay “cells [11]”.
Regarding `COc1ccc(N2CSC3=C(C#N)C(c4cccs4)CC(=O)N3C2)cc1` (stereo not given), the IC50 was 8.68 µM (active) in assay [12]; 10.7 µM (active) at Large T antigen; > 50 µM (inactive) in [13]; 74.1 µM (active) in assay [14]; > 64 µM (inactive) in assay [15].
As for `Cc1cccc(S(=O)(=O)c2c(N)n(Cc3ccco3)c3nc4ccccc4nc23)c1`, the IC50 in assay [16] was > 100 µM (inactive); in [17], > 100 µM (inactive); against Estrogen receptor beta, > 50 µM (not active). The EC50 in assay [18] is > 53 µM (inactive).
Take `Cc1cc(-c2nnc(S)n2/N=C/C=C/c2ccccc2)[nH]n1`: the IC50 is > 100 µM (inactive) in [14] and 2.35 µM (active) in assay [19].
In the case of `COc1cc(/C=N\NC(=O)c2sc(N)nc2C)cc(OC)c1OC`, the IC50 was > 20 µM (inactive) on Bcl-2-related protein A1, 0.477 µM (active) in assay [20] and 0.386 µM (active) in [21].
For the compound `CC[n+]1cccc(-c2nc3ccccc3s2)c1`, the IC50 is 3.65 µM (active) in [3] and 3.66 µM (active) in assay [4].
